The source of these data is patent US20110052532A1, “Pharmaceutical composition comprising a cytokine” (priority 2007, published 2011).

For series [1], the system named is bovine viral diarrhea virus (BVDV) NADL strain. The experiment in a line: BVDV antiviral drug-drug combination assay (MTS, MacSynergy II). The format is cell-based. The settings on record: in combination with IFN-α; MDBK cells with BVDV virus. On the procedure:
(§1) The substances were solubilized in DMSO. Pegylated interferon-alpha (IFN) was supplied by Southern Research Institute and dissolved in sterile dH2O.
(§2) Drug-drug interactions were assayed by testing both the antiviral and cytotoxic activities of a wide range of concentrations of combinations of the compounds and IFN. The bovine viral diarrhea virus (BVDV) NADL strain antiviral evaluation assay and drug-drug combination analysis was performed as described in Antimicro. Agents Chemother. 2003; 47: 2293-8. BVDV is frequently employed as a hepatitis C virus surrogate model in the study of antiviral agents (Antiviral Res. 2003; 60:1-15). Madin-Darby bovine kidney cells were trypsinized, pelleted, counted and resuspended at 1×10^4/well in tissue culture medium in 96-well flat bottom, tissue culture plates in volume of 100 μl per well. […] Five concentrations of substance were evaluated in combination with nine different concentrations IFN; antiviral efficacy and cellular toxicity were monitored by MTS staining at the experimental endpoint.
(§3) At assay termination, the assay plates were stained with the soluble tetrazolium-based dye MTS (CellTiter Reagent Promega) to determine cell viability and quantify compound toxicity. […]
(§4) Theoretical additive values are calculated from the dose response curves for each substance used individually. […]

Series [2] deals with Madin-Darby bovine kidney cells. Kind of series: BVDV assay, combined cytotoxicity (MTS staining). The format is cell-based. The note with it: in combination with IFN-α; MDBK cells. On the procedure: as §1, §2, §3, §4
The next series has as its system HCV. The settings on record: cited from earlier work.

`O=C(c1ccccc1)c1ccc2nc(NC(=O)c3csc(C4CCN(c5ncnc6ccsc56)CC4)n3)[nH]c2c1` [Compound 273, 2-(1-Thieno[3,2-d]pyrimidin-4-yl-piperidin-4-yl)-thiazole-4-carboxylic acid (5-benzoyl-1H-benzoimidazol-2-yl)-amide]: in series [1], the “combined antiviral activity (drug-drug interaction)” value was “highly synergistic behaviour”. For the same molecule, the “combined cytotoxic activity (drug-drug interaction)” value in series [2] is listed as “highly antagonistic behaviour”.

B1: IFN-α: type I interferon cytokine; commercial IFN-α is IFN-α1 (protein, UniProt P01562 24-189, looked up)
Interferon alpha-1/13: CDLPETHSLDNRRTLMLLAQMSRISPSSCLMDRHDFGFPQEEFDGNQFQKAPAISVLHELIQQIFNLFTTKDSSAAWDEDLLDKFCTELYQQLNDLEACVMQEERVGETPLMNADSILAVKKYFRRITLYLTEKKYSPCAWEVVRAEIMRSLSLSTNLQERLRRKE
On to B1, for which the “sustained antiviral response, share of patients” value in the series with HCV (IFN-α therapy in chronic HCV infected patients) was 15-20%. Further, in the series on HCV (combination therapy with ribavirin), the sustained response is 38-43%.
